Values of other authors, collected in patent US20230024050A1, “Dermatological Compositions and Methods of Treatment against Cutaneous T-Cell Lymphoma” (Soligenix, Inc., priority 2021, published 2023).
Where two headings read alike, the source gives them in different places.

Columns and labels:
[1] = system: CTCL patients IA, IB, IIA refractory to ≥2 previous treatments; conditions: at end of therapy, time not stated
[2] = administered intravenously at much higher doses

C=C(c1ccc(C(=O)O)cc1)c1cc2c(cc1C)C(C)(C)CCC2(C)C [Oral Bexarotene, Bexarotene]
Response (CAILS), 24 Week ([1]; 6.5 mg/m^2, N = 15): 20%^1
Response (CAILS), 24 Week ([1]; 300 mg/m^2, N = 28): 36%^1
Response (CAILS), 24 Week ([1]; >300 mg/m^2, N = 15): 47%^1

Cc1cc(O)c2c(=O)c3c(O)cc(O)c4c5c(O)cc(O)c6c(=O)c7c(O)cc(C)c8c1c2c(c34)c(c78)c65 [hypericin]
Significant AEs on intravenous administration [2]: does not cause significant AEs other than those related to photoactivity
